Reference: US11999803B2, “Proteasome inhibitors” (University of Kentucky Research Foundation, priority 2018, dated 2024)

Experiments:
LMP2 [1] = assay: LMP2 inhibition (figure legend); format: biochemical
LMP2 [2] = target: T1, LMP2 (Mus musculus, UniProt P28076); assay: Proteasome activities in tissue of treated mice, fluorogenic substrates; format: in vivo; details: Tg2576 mice, p-value<0.05, n=3
T1 construct: proteasome activities in brain, spleen, and liver tissue collected from mice treated with vehicle (control), YU102 (10 mg/kg); from tissue; host or cells: brain, spleen and liver tissue of Tg2576 mice
Procedure: With reference to FIG. 1D, proteasome activities in brain, spleen, and liver tissue collected from mice treated with vehicle (control), YU102 (10 mg/kg), or YU102 epimer (10 mg/kg) were measured using fluorogenic substrates.

[3] = system: APP transgenic mouse model of AD (Tg2576); assay: Probe trial in Tg2576 mice; format: in vivo; details: Student's t-test, p-value<0.05, n=8
Procedure: (§1) FIG. 1A includes a schematic illustration showing the experimental schedule for a behavior test to assess cognitive impairment following administration of YU102 or YU102 epimer, as compared to control. YU102 is an inhibitor of the immunoproteasome subunit LMP2.
(§2) With reference to FIG. 1C, upon the completion of the Morris water maze test, Tg2576 mice were evaluated in the probe trial (left) and passive avoidance test (right). Statistical analyses of probe trial and passive avoidance were performed via Student's t-test.

[4] = system: APP transgenic mouse model of AD (Tg2576); assay: Morris water maze test in Tg2576 mice; format: in vivo
Procedure: as §1
With reference to FIG. 1B, cognitive function in Tg2576 mice was evaluated by the Morris water maze test, and escape latency time (left) and escape distance of the mice (right) was assessed. Statistical analyses of escape latency and escape distance were performed via two-way ANOVA.

[5] = system: LPS-stimulated BV-2 cells; assay: Cytokine and chemokine protein array in LPS-stimulated BV-2 cells; format: cell-based; details: 3 μM with LPS (1 μg/mL)
Procedure: With reference to FIG. 2, cytokine production was assessed in LPS-stimulated BV-2 cells. Cytokine and chemokine protein array blots were obtained from BV-2 cells treated with vehicle, LPS (1 μg/mL) alone, and YU102 (3 μM) or ONX0914 (3 μM) with LPS (1 μg/mL). The signal intensity of each cytokine or chemokine was expressed relative to the mean of the intensity of the corresponding spots from vehicle control sample. The bar graph depicts the fold change of each cytokine or chemokine (mean).

[6] = system: APP transgenic mouse model of AD (Tg2576); assay: Passive avoidance test in Tg2576 mice; format: in vivo; details: Student's t-test, p-value<0.05, n=8
Procedure: as §1, §2

Structure (SMILES) | LMP2 inhibition (LMP2 [1]) | LMP2 inhibitory activity in spleen and liver tissues, difference between YU102-treated and YU102 epi-treated group (LMP2 [2]; 10 mg/kg each) | LMP2 inhibitory activity in spleen and liver tissues, difference between control and treated group (LMP2 [2]; 10 mg/kg) | time spent in target quadrant, difference between control and treated mice [3] | cognitive deficits ([4]; APPsw (Tg2576) mice, FIGS. 1A-1D) | escape distance, difference between control and treated mice ([4]; Tg2576 mice, days 3-5, two-way ANOVA, p-value<0.05, n=8) | cytokine production [5] | step through latency, difference between control and treated mice [6]
CC(=O)NCC(=O)N1CCC[C@H]1C(=O)N[C@@H](Cc1ccccc1)C(=O)N[C@@H](CC(C)C)C(=O)[C@]1(C)CO1 [YU102 epi] | does not inhibit LMP2 | – | – | – | – | – | – | –
CC(=O)NCC(=O)N1CCC[C@H]1C(=O)N[C@@H](Cc1ccccc1)C(=O)N[C@@H](CC(C)C)C(=O)[C@@]1(C)CO1 [YU102] | selective LMP2 inhibitor | statistically significant | statistically significant | statistically significant | amelioration of cognitive deficits | statistically significant | suppression of cytokine production | statistically significant
